Assay [1] deals with FaDu. Put plainly: SRB anti-proliferative assay. The assay is classed as cell-based. The conditions noted are these: Homo sapiens, 72 h. The method, then:
(§1) The cell lines used for the present study were K562 (erythroid leukemia), COLO-205 (colon carcinoma), FaDu (hypopharyngeal carcinoma), MCF-7 (breast ER+ve adenocarcinoma), WRL-68 (hepatocellular carcinoma), A549 (lung carcinoma), and HEK-293 (embryonic kidney). These cell lines were purchased from the National Center for Cell Sciences (NCCS), Pune, India, except FaDu, which Dr. Sarkar endowed from CSIR-Central Drug Research Institute, Lucknow, Uttar Pradesh, India.
(§2) The SRB assay was carried out by following the method reported by Skehan et al. ([27]) with a slight modification ([28]). In 96 well plates, approximately ~2 ×10^3 cells per well were seeded. […] Approximately 20% of TCA was added in treated plates to precipitate cellular proteins, followed by washing cells with tap water and adding 10 μl SRB dye (0.4%) in each well of the plate. Then, the plate was washed with 1% acetic acid to remove the unbound dye. The bound dye was dissolved in 200 μl tris base (10 mM). The absorbance was finally measured at 515 nm using a spectrophotometer (Multiskan^TM Go SkanIt Software, version 4.0, Thermo Fisher Scientific, Waltham, MA, USA).

For another assay, the system named is K562. Briefly: SRB anti-proliferative assay. In kind it is cell-based. The note with it: Homo sapiens, K562, 72 h. The method, then:
as §1, §2

The subject of assay [2] is FaDu. Briefly: MTT anti-proliferative assay. In kind it is cell-based. The note with it: Homo sapiens. The method, then: as §1
The MTT assay was performed following the protocol as Mosmann ([30]) determined. […] The next day, 10 μl (500 μg/ml) of MTT dye was added to each well of the plate and further incubated for 4 h. After that, the formazan crystal was dissolved in 100 μl DMSO and absorbance was measured at 570 nm. The SRB, NRU, and MTT assays were calculated using percentage cytotoxicity concerning control ([30]).

The next assay has as its system A549. Briefly: NRU anti-proliferative assay. In kind it is cell-based. The conditions noted are these: Homo sapiens. As for the experimental part: as §1
(§3) The NRU assay was carried out by Babich and Borenfreund ([29]) method. Similar to the SRB assay, 5 μl NRU dye was added to the treated plate. Then, cells were washed with fixative solution after 3 h of incubation; further, the bound dye was solubilized in a dissolving solution. The absorbance was measured at 540 nm ([29]).

Assay [3] concerns FaDu. Put plainly: NRU anti-proliferative assay. In kind it is cell-based, human. As for the experimental part: as §1, §3
Assay [4] deals with T1, Ornithine decarboxylase (ODC) (Homo sapiens, UniProt P11926).
T1 construct: endogenous in cells; host or cells: A549
Put plainly: ODC activity assay in lysate of treated cells. The assay is classed as cell-based. The conditions noted are these: A549, 100 μM.
Procedure: The ODC activity was determined by the modified method reported by Luqman et al. ([32]). Approximately 10 μg of cell lysate was added to the reaction cocktail (2.5 mM β-mercaptoethanol, 1.5 mM EDTA, 75 nM pyridoxal-phosphate, 3 mM L-ornithine hydrochloride in 150 mM potassium phosphate buffer, and pH 7.1). Approximately, 400 μl of 1 M perchloric acid was used to terminate the reaction, and NaOH (4N) was added to the supernatant. Further, 1-pentanol was added after centrifugation. Then, the upper organic phase was transferred to a microcentrifuge tube with 200 μl sodium borate, 200 μl TNBS, and 400 μl DMSO. Further, it was centrifuged, and 60 μl of supernatant was taken in plate, and absorbance was measured at 412 nm. The graph was plotted in the terms of percentage inhibition.

For a further assay, the system named is Hyaluronidase (HYAL). Briefly: HYAL activity assay in cell lysate. In kind it is cell-based, human. As for the experimental part: Protein was estimated by nanodrop before being used for the enzyme assays.
The HYAL assay was performed by the standard reported protocol ([35]). Approximately 10 μg of cell lysate added in enzyme diluent buffer (77 mM sodium chloride, 20 mM sodium phosphate, 0.01% albumin, and pH 7.0 at 37°C). The reaction mixture was incubated for 45 min after adding HA (substrate). The mixture was distributed in three parts, each well of the plate containing 25 μl followed by the addition of 125 μl of diluent buffer (79 mM acetic acid, 24 mM sodium acetate, 0.1% albumin bovine, and pH 3.75). The absorbance was measured at 600 nm after 10 min incubation. The graph was shown in the terms of percentage inhibition. Hemoglobin was used as a substrate to determine CATD activity ([36]). Cell lysate (10 μg) was incubated with a reaction cocktail (2.5% of hemoglobin, deionised water, 400 mM citrate buffer, and pH 2.8) for 30 min at 37°C; the reaction was terminated by adding 5% TCA. Then, 200 μl of supernatant was taken in plate after centrifuge and absorbance were measured at 280 nm.

A further assay relates to AKT. Briefly: ELISA kit assay in FaDu cells. In kind it is cell-based, human. The method, then:
(§4) The PI3K expression was determined using a kit procured from Bioassay Technology (Catalog No. E0896Hu). The protocol measured the AKT (Catalog No. 201-12-0893) and HDAC-6 (Catalog No. 201-12-2132) as indicated in the human-specific ELISA kit from Sun Red Company, China. mTOR (Catalog No. E-EL-H1655) was quantified by a kit purchased from ELab Sciences, USA. The VEGF (Catalog No. ab100663) and HIF-1α (Catalog No. ab171577) were estimated using a kit procured from Abcam, UK.

In the next assay the test system is HDAC-6. Briefly: ELISA kit assay in FaDu cells. In kind it is cell-based, human. As for the experimental part:
as §4
(In general: ELISA stands for enzyme-linked immunosorbent assay.)

Another assay concerns HIF-1α. Briefly: ELISA kit assay in FaDu cells. In kind it is cell-based, human. The note with it: both tested concentrations. As for the experimental part: as §4
In another assay the test system is PI3K. Briefly: ELISA kit assay in FaDu cells. In kind it is cell-based, human. As for the experimental part:
as §4

Another assay deals with VEGF. Put plainly: ELISA kit assay in FaDu cells. In kind it is cell-based, human. The conditions noted are these: both tested concentrations. The method, then:
as §4

In the next assay the test system is mTOR. Briefly: ELISA kit assay in FaDu cells. The assay is classed as cell-based, human. The method, then:
as §4

For assay [5], the system named is FaDu cells. Briefly: Cell cycle analysis (PI, flow cytometer). In kind it is cell-based, human. The conditions noted are these: PI staining. The method, then:
(§5) The cell cycle analysis was carried out by the protocol reported by Fatima et al. ([40]). The cell lines were fixed with 70% ethanol. Before analysis, fixed cells were washed at least two times with PBS and PI solution containing RNase A to stain the cells. The samples were run on a flow cytometer within 1 h. Treated FaDu cells were incubated with 10 μM of DCFH-DA dye for 30 min then fluorescence was measured at 485/530 nm of […]. For FACS analysis, treated cells were incubated with 10 μM of DCFH-DA dye for 30 min, and the samples were analyzed within 1 h ([41]). The protocol for the analysis of MMP was similar to that of DCFH-DA except for Rhodamine 123 dye ([41]). The experiment was also carried out as per the method reported in Annexin-V-FITC apoptosis detection kit I (BD Pharmingen^TM, Catalog No. 556547). For the assay, 1 × 10^6 cells were grown in 6 well plates and treatment was given 24 h. The next day, cells were washed with cold PBS, and the pellet was resuspended in 100 μl (1X binding) buffer and left for 15 min followed by incubation with a dual fluorescent dye (5 μl FITC and 5 μl PI) for 10 min. The cell suspension was maintained upto 500 μl from the 1X binding buffer. The stained cells were analyzed by flow cytometer within 1 h ([42]).

Assay [6] relates to FaDu cells. Briefly: ROS production (DCFH-DA). In kind it is cell-based, human. As for the experimental part: as §5
The subject of the next assay is resistant species. The note with it: against the resistant species; ref [8], [9]; cited from earlier work.
The target of a further assay is Cyclooxygenase-2 (COX-2) (Homo sapiens, UniProt P35354). Briefly: COX-2 activity assay in cell lysate. The conditions noted are these: A549, 100 μM.

Consider one molecule from article PMC9028219 (Frontiers in Nutrition, 2022).

Each structure is given as a SMILES string.

T1 sequence (P11926 whole entry): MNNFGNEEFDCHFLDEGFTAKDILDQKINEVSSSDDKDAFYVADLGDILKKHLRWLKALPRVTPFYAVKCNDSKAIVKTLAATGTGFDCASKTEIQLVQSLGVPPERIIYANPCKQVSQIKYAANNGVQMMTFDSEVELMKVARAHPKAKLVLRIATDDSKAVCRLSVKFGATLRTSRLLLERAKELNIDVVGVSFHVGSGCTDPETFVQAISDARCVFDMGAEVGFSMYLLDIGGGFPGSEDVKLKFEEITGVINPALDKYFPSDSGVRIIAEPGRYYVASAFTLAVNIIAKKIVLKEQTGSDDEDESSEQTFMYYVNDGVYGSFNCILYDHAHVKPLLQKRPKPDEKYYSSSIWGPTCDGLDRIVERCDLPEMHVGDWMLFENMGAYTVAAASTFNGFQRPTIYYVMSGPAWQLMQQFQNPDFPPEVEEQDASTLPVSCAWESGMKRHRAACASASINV
Cyclooxygenase-2 (COX-2), sequence (P35354 18-604): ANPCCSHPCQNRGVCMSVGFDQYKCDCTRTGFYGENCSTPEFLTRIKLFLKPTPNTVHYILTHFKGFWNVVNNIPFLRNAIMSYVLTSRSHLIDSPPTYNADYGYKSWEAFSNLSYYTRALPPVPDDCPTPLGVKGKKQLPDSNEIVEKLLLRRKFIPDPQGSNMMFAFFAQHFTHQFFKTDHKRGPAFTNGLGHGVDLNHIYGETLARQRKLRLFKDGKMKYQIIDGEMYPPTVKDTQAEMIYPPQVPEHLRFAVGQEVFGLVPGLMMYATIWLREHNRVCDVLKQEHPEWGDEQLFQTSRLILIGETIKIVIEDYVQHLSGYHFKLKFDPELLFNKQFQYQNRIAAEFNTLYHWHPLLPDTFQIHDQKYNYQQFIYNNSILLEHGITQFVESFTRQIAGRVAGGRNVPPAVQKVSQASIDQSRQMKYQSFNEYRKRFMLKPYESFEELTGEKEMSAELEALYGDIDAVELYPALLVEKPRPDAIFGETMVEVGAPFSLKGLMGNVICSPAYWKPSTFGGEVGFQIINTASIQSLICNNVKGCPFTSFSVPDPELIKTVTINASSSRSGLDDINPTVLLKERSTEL
Procedure for Cyclooxygenase-2 (COX-2): Cyclooxygenase-2 (COX-2) activity was measured as reported by Kulmaczand Lands ([33]). The reaction cocktail consists of Tris-HCl buffer (100 mM and pH 8.0), EDTA (3 μM), hematin (15 μM), and cell lysate. After incubation, arachidonic acid (AA) and N,N,N′,N′-tetra methyl-p-phenylenediamine (TMPD) was added to 96 well plates to initiate the reaction. The reaction mixture was immediately auto mixed using the Multiscan Go of Thermo Scientific spectrophotometer, and absorbance was measured at 590 nm ([33]). The enzyme inhibition was calculated concerning control. […] Approximately 40 μM of AA was mixed to initiate the reaction, and the plate was kept for 4 min at room temperature. The reaction was terminated by adding an equal ratio of reagent 1 (4.5 mM FeSo4 in HCl) and reagent 2 (3% NH4SCN). The absorbance was taken at 480 nm using a spectrophotometer ([34]). The enzyme inhibition was compared concerning control.

On to `Cc1ccc(C(C)C)cc1O` [carvacrol, 5-isopropyl-2-methyl phenol], for which the IC50 – broadly, the concentration that inhibits the measured activity by half – is 42 ± 11.4 µM in the assay with FaDu [1]; 81.3 ± 11.8 µM in the assay on K562; 9.61 ± 0.05 µM in the assay on FaDu [2]; 80.9 ± 8.28 µM in the assay on A549; 88.1 ± 10.4 µM in the assay on Hyaluronidase (HYAL) (FaDu); 62 ± 8.4 µM in the assay on Hyaluronidase (HYAL) (K562). The molecule further returned a growth inhibition with FaDu [3] of 35.32 ± 2.85%. Besides, in assay [4], the “reduction of ODC activity” value is 35.68%. In addition, in the assay on Hyaluronidase (HYAL) (A549, 100 μM), the “reduction of HYAL enzyme action” value stood at 39.15%. Moreover, the “effect on AKT activity” value in the assay on AKT is on record as “suppresses the activity of the PI3K/AKT at the higher tested concentration”. Moreover, in the assay with HDAC-6, the “effect on HDAC-6 activity” value is listed as “inhibits HDAC-6 activity in a dose-dependent manner”. Further, the “effect on HIF-1α activity” value with HIF-1α was “the effect was non-significant”. Moreover, the “effect on PI3K activity” value with PI3K is listed as “suppresses the activity of the PI3K/AKT at the higher tested concentration”. In the assay on VEGF, the “effect on VEGF activity” value was “the effect was non-significant”. Also, the “effect on mTOR activity” value with mTOR is “reduces the activity”. Moreover, in the assay on FaDu cells [5], the “cell cycle phase arrest” value is on record as “arrests the G2/M phase of FaDu cells in a dose-dependent manner”. Further, the sub-diploid population result with FaDu cells [5] was “raises the sub-diploid population number”. Also, the ROS production result in the assay with FaDu cells [6] is recorded as “increases the ROS production in FaDu cell line in a dose-dependent manner; however, the effect was non-significant”. Moreover, in the assay on resistant species, the “minimum inhibitory concentration (MIC)” value is listed as 0.015–0.03 % v/v. Further, the “reduction of COX-2 activity” value at Cyclooxygenase-2 (COX-2) is on record as 13.33%.
